Reference: US6340689B1 (priority 1999, dated 2002)
Converted amounts (≈) assume the structure as drawn.

Experiments:
[1] = test system: L. pneumophila serogroup 5; experiment: microbe, parasite or virus in culture; assay type: cell-based; settings: Legionella pneumophila; for MIC: 48 h, read-out: MIC Range
Other Legionella spp. = experiment: microbe, parasite or virus in culture; assay type: cell-based; settings: for MIC: 48 h, read-out: MIC Range
[2] = test system: L. pneumophila serogroup 6; experiment: microbe, parasite or virus in culture; assay type: cell-based; settings: Legionella pneumophila; for MIC: 48 h, read-out: MIC Range
[3] = test system: Erythromycin-susceptible L. pneumophila; assay type: cell-based, Legionella pneumophila; settings: Erythromycin-susceptible L. pneumophila (n = 15); 4 × MIC; mean ± SD
[4] = test system: isolates of Legionella pneumophila and other Legionella spp.; experiment: microbe, parasite or virus in culture; assay type: cell-based
[5] = test system: L. pneumophila serogroup 4; experiment: microbe, parasite or virus in culture; assay type: cell-based; settings: Legionella pneumophila; for MIC: 48 h, read-out: MIC Range
[6] = test system: L. pneumophila serogroup 7; experiment: microbe, parasite or virus in culture; assay type: cell-based; settings: Legionella pneumophila; for MIC: 48 h, read-out: MIC Range
L. longbeacheae = experiment: organism not typed; assay type: cell-based; settings: for MIC: 48 h, read-out: MIC Range
L. dumoffii = experiment: organism not typed; assay type: cell-based; settings: for MIC: 48 h, read-out: MIC Range
[7] = test system: L. pneumophila serogroup 1; experiment: microbe, parasite or virus in culture; assay type: cell-based, Legionella pneumophila; settings: Legionella pneumophila; for MIC: 48 h, read-out: MIC Range; for MIC90: L. pneumophila serogroup 1 (n = 85)
L. micadadei = experiment: organism not typed; assay type: cell-based, L. micdadei; settings: for MIC: 48 h, read-out: MIC Range
[8] = test system: L. pneumophila serogroup 8, 9; experiment: microbe, parasite or virus in culture; assay type: cell-based; settings: Legionella pneumophila; for MIC: 48 h, read-out: MIC Range
[9] = test system: L. pneumophila serogroup 2; experiment: microbe, parasite or virus in culture; assay type: cell-based; settings: Legionella pneumophila; for MIC: 48 h, read-out: MIC Range
[10] = test system: L. pneumophila serogroup 3; experiment: microbe, parasite or virus in culture; assay type: cell-based; settings: Legionella pneumophila; for MIC: 48 h, read-out: MIC Range
[11] = test system: Erythromycin-susceptible Legionella spp. other than L. pneumophila; assay type: cell-based; settings: Erythromycin-susceptible Legionella spp. (n = 13); 4 × MIC; mean ± SD

Structure (SMILES)	MIC50 [1]	MIC90 [1]	MIC50 (Other Legionella spp.)	MIC90 (Other Legionella spp.)	MIC (Other Legionella spp.)	MIC50 [2]	MIC90 [2]	MIC [2]	Mean PAE [3]	MIC90 [4]	MIC50 [5]	MIC90 [5]	MIC [5]	MIC50 [6]	MIC90 [6]	MIC [6]	MIC50 (L. longbeacheae)	MIC90 (L. longbeacheae)	MIC (L. longbeacheae)	MIC50 (L. dumoffii)	also measured
Cc1c(F)c(N2CCNC(C)C2)cc2c1c(=O)c(C(=O)O)cn2C1CC1 (stereo not shown) [Grepafloxacin]	0.016 µg/mL (≈ 0.0445 µM)	0.03 µg/mL (≈ 0.0835 µM)	0.03 µg/mL (≈ 0.0835 µM)	0.03 µg/mL (≈ 0.0835 µM)	0.004 to 0.03 µg/mL (≈ 0.0111 to 0.0835 µM)	0.008 µg/mL (≈ 0.0223 µM)	0.016 µg/mL (≈ 0.0445 µM)	0.004 to 0.016 µg/mL (≈ 0.0111 to 0.0445 µM)	2.62 ± 3 h	0.016 µg/mL (≈ 0.0445 µM)	0.008 µg/mL (≈ 0.0223 µM)	0.016 µg/mL (≈ 0.0445 µM)	0.008 to 0.016 µg/mL (≈ 0.0223 to 0.0445 µM)	≤ 0.004 µg/mL	0.008 µg/mL (≈ 0.0223 µM)	0.004 to 0.008 µg/mL (≈ 0.0111 to 0.0223 µM)	0.03 µg/mL (≈ 0.0835 µM)	0.06 µg/mL (≈ 0.167 µM)	0.004 to 0.06 µg/mL (≈ 0.0111 to 0.167 µM)	0.06 µg/mL (≈ 0.167 µM)	MIC90 (L. dumoffii): 0.06 µg/mL (≈ 0.167 µM); MIC (L. dumoffii): 0.06 µg/mL (≈ 0.167 µM); MIC50 [7]: 0.016 µg/mL (≈ 0.0445 µM); MIC [7]: 0.004 to 0.06 µg/mL (≈ 0.0111 to 0.167 µM); MIC90 [7]: 0.016 µg/mL (≈ 0.0445 µM); MIC50 (L. micadadei): 0.008 µg/mL (≈ 0.0223 µM); MIC90 (L. micadadei): 0.016 µg/mL (≈ 0.0445 µM); MIC (L. micadadei): 0.004 to 0.016 µg/mL (≈ 0.0111 to 0.0445 µM); MIC50 [8]: 0.008 µg/mL (≈ 0.0223 µM); MIC90 [8]: 0.008 µg/mL (≈ 0.0223 µM); MIC [8]: 0.008 µg/mL (≈ 0.0223 µM); MIC50 [9]: 0.008 µg/mL (≈ 0.0223 µM); MIC90 [9]: 0.016 µg/mL (≈ 0.0445 µM); MIC [9]: 0.004 to 0.03 µg/mL (≈ 0.0111 to 0.0835 µM); MIC50 [10]: 0.008 µg/mL (≈ 0.0223 µM); MIC90 [10]: 0.016 µg/mL (≈ 0.0445 µM); MIC [10]: 0.004 to 0.016 µg/mL (≈ 0.0111 to 0.0445 µM); Mean PAE [11]: 1.67 ± 1 h
C[C@H]1COc2c(N3CCN(C)CC3)c(F)cc3c(=O)c(C(=O)O)cn1c23 [Levofloxacin]	0.008 µg/mL (≈ 0.0221 µM)	0.016 µg/mL (≈ 0.0443 µM)	0.016 µg/mL (≈ 0.0443 µM)	0.016 µg/mL (≈ 0.0443 µM)	0.008 to 0.06 µg/mL (≈ 0.0221 to 0.166 µM)	0.008 µg/mL (≈ 0.0221 µM)	0.016 µg/mL (≈ 0.0443 µM)	0.008 to 0.016 µg/mL (≈ 0.0221 to 0.0443 µM)	2.14 ± 2 h	0.016 µg/mL (≈ 0.0443 µM)	0.016 µg/mL (≈ 0.0443 µM)	0.016 µg/mL (≈ 0.0443 µM)	0.004 to 0.016 µg/mL (≈ 0.0111 to 0.0443 µM)	0.008 µg/mL (≈ 0.0221 µM)	0.016 µg/mL (≈ 0.0443 µM)	0.008 to 0.016 µg/mL (≈ 0.0221 to 0.0443 µM)	0.016 µg/mL (≈ 0.0443 µM)	0.016 µg/mL (≈ 0.0443 µM)	0.008 to 0.016 µg/mL (≈ 0.0221 to 0.0443 µM)	0.016 µg/mL (≈ 0.0443 µM)	MIC [1]: 0.004 to 0.016 µg/mL (≈ 0.0111 to 0.0443 µM); MIC90 (L. dumoffii): 0.016 µg/mL (≈ 0.0443 µM); MIC (L. dumoffii): 0.016 µg/mL (≈ 0.0443 µM); MIC50 [7]: 0.016 µg/mL (≈ 0.0443 µM); MIC [7]: 0.004 to 0.016 µg/mL (≈ 0.0111 to 0.0443 µM); MIC90 [7]: 0.016 µg/mL (≈ 0.0443 µM); MIC50 (L. micadadei): 0.016 µg/mL (≈ 0.0443 µM); MIC90 (L. micadadei): 0.016 µg/mL (≈ 0.0443 µM); MIC (L. micadadei): 0.008 to 0.016 µg/mL (≈ 0.0221 to 0.0443 µM); MIC50 [8]: 0.008 µg/mL (≈ 0.0221 µM); MIC90 [8]: 0.016 µg/mL (≈ 0.0443 µM); MIC [8]: 0.008 to 0.016 µg/mL (≈ 0.0221 to 0.0443 µM); MIC50 [9]: 0.008 µg/mL (≈ 0.0221 µM); MIC90 [9]: 0.008 µg/mL (≈ 0.0221 µM); MIC [9]: 0.004 to 0.016 µg/mL (≈ 0.0111 to 0.0443 µM); MIC50 [10]: 0.008 µg/mL (≈ 0.0221 µM); MIC90 [10]: 0.016 µg/mL (≈ 0.0443 µM); MIC [10]: 0.008 to 0.016 µg/mL (≈ 0.0221 to 0.0443 µM); Mean PAE [11]: 1.35 ± 1 h
COc1c(N2C[C@@H]3CCCN[C@@H]3C2)c(F)cc2c(=O)c(C(=O)O)cn(C3CC3)c12 [Moxifloxacin]	0.016 µg/mL (≈ 0.0399 µM)	0.016 µg/mL (≈ 0.0399 µM)	0.008 µg/mL (≈ 0.0199 µM)	0.03 µg/mL (≈ 0.0747 µM)	0.008 to 0.03 µg/mL (≈ 0.0199 to 0.0747 µM)	0.008 µg/mL (≈ 0.0199 µM)	0.016 µg/mL (≈ 0.0399 µM)	0.004 to 0.016 µg/mL (≈ 0.00996 to 0.0399 µM)	3.59 ± 3 h	0.016 µg/mL (≈ 0.0399 µM)	0.016 µg/mL (≈ 0.0399 µM)	0.016 µg/mL (≈ 0.0399 µM)	0.004 to 0.016 µg/mL (≈ 0.00996 to 0.0399 µM)	≤ 0.004 µg/mL	0.016 µg/mL (≈ 0.0399 µM)	0.004 to 0.016 µg/mL (≈ 0.00996 to 0.0399 µM)	0.016 µg/mL (≈ 0.0399 µM)	0.03 µg/mL (≈ 0.0747 µM)	0.008 to 0.03 µg/mL (≈ 0.0199 to 0.0747 µM)	0.03 µg/mL (≈ 0.0747 µM)	MIC [1]: 0.004 to 0.03 µg/mL (≈ 0.00996 to 0.0747 µM); MIC90 (L. dumoffii): 0.03 µg/mL (≈ 0.0747 µM); MIC (L. dumoffii): 0.008 to 0.03 µg/mL (≈ 0.0199 to 0.0747 µM); MIC50 [7]: 0.016 µg/mL (≈ 0.0399 µM); MIC [7]: 0.004 to 0.03 µg/mL (≈ 0.00996 to 0.0747 µM); MIC90 [7]: 0.016 µg/mL (≈ 0.0399 µM); MIC50 (L. micadadei): 0.016 µg/mL (≈ 0.0399 µM); MIC90 (L. micadadei): 0.03 µg/mL (≈ 0.0747 µM); MICs fold more active than erythromycin (L. micadadei): 5 fold; MIC (L. micadadei): 0.008 to 0.03 µg/mL (≈ 0.0199 to 0.0747 µM); MIC50 [8]: 0.016 µg/mL (≈ 0.0399 µM); MIC90 [8]: 0.016 µg/mL (≈ 0.0399 µM); MIC [8]: 0.016 µg/mL (≈ 0.0399 µM); MIC50 [9]: 0.008 µg/mL (≈ 0.0199 µM); MIC90 [9]: 0.008 µg/mL (≈ 0.0199 µM); MIC [9]: 0.004 to 0.016 µg/mL (≈ 0.00996 to 0.0399 µM); MIC50 [10]: 0.008 µg/mL (≈ 0.0199 µM); MIC90 [10]: 0.016 µg/mL (≈ 0.0399 µM); MIC [10]: 0.004 to 0.016 µg/mL (≈ 0.00996 to 0.0399 µM); Mean PAE [11]: 1.18 ± 2 h
CC1COc2c(N3CCN(C)CC3)c(F)cc3c(=O)c(C(=O)O)cn1c23 (stereo not shown) [Ofloxacin]	0.016 µg/mL (≈ 0.0443 µM)	0.03 µg/mL (≈ 0.083 µM)	0.016 µg/mL (≈ 0.0443 µM)	0.06 µg/mL (≈ 0.166 µM)	0.004 to 0.06 µg/mL (≈ 0.0111 to 0.166 µM)	0.03 µg/mL (≈ 0.083 µM)	0.03 µg/mL (≈ 0.083 µM)	0.008 to 0.03 µg/mL (≈ 0.0221 to 0.083 µM)	3.53 ± 3 h	0.03 µg/mL (≈ 0.083 µM)	0.03 µg/mL (≈ 0.083 µM)	0.03 µg/mL (≈ 0.083 µM)	0.008 to 0.03 µg/mL (≈ 0.0221 to 0.083 µM)	0.03 µg/mL (≈ 0.083 µM)	0.03 µg/mL (≈ 0.083 µM)	0.03 µg/mL (≈ 0.083 µM)	0.03 µg/mL (≈ 0.083 µM)	0.03 µg/mL (≈ 0.083 µM)	0.016 to 0.03 µg/mL (≈ 0.0443 to 0.083 µM)	0.03 µg/mL (≈ 0.083 µM)	MIC [1]: 0.008 to 0.03 µg/mL (≈ 0.0221 to 0.083 µM); MIC90 (L. dumoffii): 0.03 µg/mL (≈ 0.083 µM); MIC (L. dumoffii): 0.03 µg/mL (≈ 0.083 µM); MIC50 [7]: 0.03 µg/mL (≈ 0.083 µM); MIC [7]: 0.008 to 0.03 µg/mL (≈ 0.0221 to 0.083 µM); MIC90 [7]: 0.03 µg/mL (≈ 0.083 µM); MIC50 (L. micadadei): 0.03 µg/mL (≈ 0.083 µM); MIC90 (L. micadadei): 0.03 µg/mL (≈ 0.083 µM); MICs fold more active than erythromycin (L. micadadei): 5 fold; MIC (L. micadadei): 0.03 µg/mL (≈ 0.083 µM); MIC50 [8]: 0.03 µg/mL (≈ 0.083 µM); MIC90 [8]: 0.03 µg/mL (≈ 0.083 µM); MIC [8]: 0.03 µg/mL (≈ 0.083 µM); MIC50 [9]: 0.016 µg/mL (≈ 0.0443 µM); MIC90 [9]: 0.03 µg/mL (≈ 0.083 µM); MIC [9]: 0.008 to 0.03 µg/mL (≈ 0.0221 to 0.083 µM); MIC50 [10]: 0.016 µg/mL (≈ 0.0443 µM); MIC90 [10]: 0.03 µg/mL (≈ 0.083 µM); MIC [10]: 0.016 to 0.03 µg/mL (≈ 0.0443 to 0.083 µM); Mean PAE [11]: 3.04 ± 2 h
